Experimental findings from patent US10087185B2 (Janssen Pharmaceutica NV, priority 2016, dated 2018) are described below.

Molecules are shown by their SMILES.

TARP γ8 dependent AMPA receptor (GRIA1o-CACNG8 fusion construct), sequence (P42261 other isoform, or with tags, fused parts or gaps): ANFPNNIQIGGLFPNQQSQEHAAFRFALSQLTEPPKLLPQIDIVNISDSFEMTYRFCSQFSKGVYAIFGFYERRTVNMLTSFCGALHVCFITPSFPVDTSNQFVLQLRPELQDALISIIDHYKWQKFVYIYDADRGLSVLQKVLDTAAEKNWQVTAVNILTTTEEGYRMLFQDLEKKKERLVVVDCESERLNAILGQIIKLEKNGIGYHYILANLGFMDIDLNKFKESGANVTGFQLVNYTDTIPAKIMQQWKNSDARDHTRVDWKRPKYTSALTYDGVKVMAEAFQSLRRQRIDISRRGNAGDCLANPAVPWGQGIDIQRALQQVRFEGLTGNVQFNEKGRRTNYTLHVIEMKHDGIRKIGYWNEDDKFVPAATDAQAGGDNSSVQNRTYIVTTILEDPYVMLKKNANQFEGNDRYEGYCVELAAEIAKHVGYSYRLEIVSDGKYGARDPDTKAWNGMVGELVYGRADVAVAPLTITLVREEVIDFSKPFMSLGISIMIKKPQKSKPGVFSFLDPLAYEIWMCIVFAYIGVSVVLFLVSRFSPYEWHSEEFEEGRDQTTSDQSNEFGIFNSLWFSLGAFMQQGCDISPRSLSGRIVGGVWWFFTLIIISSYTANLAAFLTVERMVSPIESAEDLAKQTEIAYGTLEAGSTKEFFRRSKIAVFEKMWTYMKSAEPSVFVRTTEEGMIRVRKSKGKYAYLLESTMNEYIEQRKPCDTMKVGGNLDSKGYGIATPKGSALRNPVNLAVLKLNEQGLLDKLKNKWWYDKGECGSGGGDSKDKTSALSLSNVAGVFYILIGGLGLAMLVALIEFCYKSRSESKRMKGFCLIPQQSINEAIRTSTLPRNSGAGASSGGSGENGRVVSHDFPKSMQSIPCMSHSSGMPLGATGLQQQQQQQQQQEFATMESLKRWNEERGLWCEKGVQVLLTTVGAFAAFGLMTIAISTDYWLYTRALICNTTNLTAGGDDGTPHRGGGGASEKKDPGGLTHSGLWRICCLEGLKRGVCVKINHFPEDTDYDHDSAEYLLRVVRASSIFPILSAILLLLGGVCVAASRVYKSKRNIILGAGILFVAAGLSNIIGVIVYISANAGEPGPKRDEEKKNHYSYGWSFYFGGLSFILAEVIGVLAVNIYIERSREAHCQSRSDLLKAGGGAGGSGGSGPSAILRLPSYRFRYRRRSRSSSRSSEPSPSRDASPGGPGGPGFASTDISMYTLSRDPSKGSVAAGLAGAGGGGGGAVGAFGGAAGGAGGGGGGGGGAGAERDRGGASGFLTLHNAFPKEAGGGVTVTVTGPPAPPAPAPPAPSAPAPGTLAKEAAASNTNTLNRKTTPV

This assay concerns the target TARP γ8 dependent AMPA receptor (GRIA1o-CACNG8 fusion construct) (Homo sapiens (Human), UniProt P42261+Q8WXS5). Nature of the assay: Calcium flux assay (FLIPR), inhibition of glutamate response of GluA1o-γ8 channel. The following applies: HEK293 cells stably expressing GRIA1o-CACNG8 fusion; calcium flux after 15 μM glutamate; negative log of the IC50 in molar. It is filed as cell-based. An excerpt: This assay was used to test compounds for their ability to inhibit TARP γ8 dependent AMPA receptor activity. The AMPA receptor is a non-selective cation channel activated by glutamate. […] But, this desensitization is incomplete, and a substantial steady-state current remains in the sustained presence of glutamate (Cho et al. (2007). “Two families of TARP isoforms that have distinct effects on the kinetic properties of AMPA receptors and synaptic currents.” Neuron 55(6): 890-904).
An in vitro assay was used to determine the potency of test compounds as inhibitors of the glutamate response of the channel formed by GluA10-γ8. To ensure a 1:1 stoichiometry of GluA1o and γ8 subunits in the expressed channel, a fusion of the cDNAs for GRIA1o and CACNG8 was used. Following Shi et al (2009) “The stoichiometry of AMPA receptors and TARPs varies by neuronal cell type.” Neuron 62(5): 633-640), the C-terminus of the cDNA for GRIA1o was fused to the N-terminus of the cDNA for γ8. The linker sequence was […]. Channels expressed with this construct appear to have similar properties to channels formed by co-expression of GRIA1o with an excess of CACNG8 (Shi et al. 2009). A clonal cell line in HEK293 cells stably expressing this construct, with a geneticin selection marker, was generated for use in this assay.
Cell expressing the GRIA1o-CACNG8 fusion construct were grown in a monolayer in 96- or 384-well microtiter plates. They were washed with assay buffer (135 mM NaCl, 4 mM KCl, 3 mM CaCl2, 1 mM MgCl2, 5 mM glucose, 10 mM HEPES, pH 7.4, 300 mOs) using a Biotek EL405 plate washer. The cells were then loaded with a calcium-sensitive dye (Calcium-5 or Calcium-6, Molecular Devices) and the test compounds at a range of concentrations. Calcium flux following the addition of 15 μM glutamate was monitored using a Molecular Devices FLIPR Tetra.
The fluorescence in each well was normalized to the fluorescence of negative and positive control wells. The negative control wells had no added compounds, and the positive control wells had been incubated with 10 μM CP465022 (a non-subtype-selective AMPA receptor antagonist) (Lazzaro et al. (2002). “Functional characterization of CP-465,022, a selective, noncompetitive AMPA receptor antagonist.” Neuropharmacology 42(2): 143-153). The responses to glutamate as functions of the test compound concentrations were fitted to a four-parameter logistic function. The fitted parameter corresponding to the midpoint was taken to be the potency of inhibition of the compound. The data in Table 4 below illustrates the observed potency for the compounds described herein. pIC50 refers to the negative log of the IC50 in molar.
A word on the IC50: it is the midpoint of a concentration-inhibition curve. For the compound `COc1ccc2nc(C(F)F)nn2c1-c1cc(C)c2[nH]ncc2c1` [Example 14, 2-(Difluoromethyl)-6-methoxy-5-(7-methyl-1H-indazol-5-yl)-[1,2,4]triazolo[1,5-a]pyridine], the IC50 was 5.01 nM.

Take `Cc1cc(-c2c(C(F)(F)F)cc(F)c3nc(C4CC4)nn23)cc2cn[nH]c12` [Example 33, 2-Cyclopropyl-8-fluoro-5-(7-methyl-1H-indazol-5-yl)-6-(trifluoromethyl)-[1,2,4]triazolo[1,5-a]pyridine]: the IC50 is 0.2 nM.

For `Cc1cc(-c2c(C(F)F)ccc3nc(C4CC4)nn23)cc2cn[nH]c12` [Example 49, 2-Cyclopropyl-6-(difluoromethyl)-5-(7-methyl-1H-indazol-5-yl)-[1,2,4]triazolo[1,5-a]pyridine], the IC50 was 0.794 nM.

On to `CCc1nc2c(C)cc(C(F)(F)F)c(-c3cc(C(F)(F)F)c4[nH]ncc4c3)n2n1` [Example 101, 2-Ethyl-8-methyl-6-(trifluoromethyl)-5-(7-(trifluoromethyl)-1H-indazol-5-yl)-[1,2,4]triazolo[1,5-a]pyridine], for which the IC50 was 0.316 nM.

In the case of `CCc1nc2ccc(C(F)F)c(-c3cc(Cl)c4[nH]ncc4c3)n2n1` [Example 44, 5-(7-Chloro-1H-indazol-5-yl)-6-(difluoromethyl)-2-ethyl-[1,2,4]triazolo[1,5-a]pyridine], the IC50 was 0.398 nM.

With `CCCc1nc2c(Cl)cc(C(F)(F)F)c(-c3cc(Cl)c4[nH]ncc4c3)n2n1` [Example 96, 8-Chloro-5-(7-chloro-1H-indazol-5-yl)-2-propyl-6-(trifluoromethyl)-[1,2,4]triazolo[1,5-a]pyridine], the IC50 was 0.398 nM.

For `Cc1cc(-c2c(C(F)(F)F)ccc3cc(C(F)(F)F)nn23)cc2cn[nH]c12` [Example 64, 5-(2,6-Bis(trifluoromethyl)pyrazolo[1,5-a]pyridin-7-yl)-7-methyl-1H-indazole], the IC50 was 0.0158 nM.

Take `Cc1cc(-c2c(C(F)(F)F)ccc3nc(C(C)C)nn23)cc2cn[nH]c12` [Example 37, 2-Isopropyl-5-(7-methyl-1H-indazol-5-yl)-6-(trifluoromethyl)-[1,2,4]triazolo[1,5-a]pyridine]: the IC50 was 0.316 nM.

In the case of `CCc1cc(C(F)F)c(-c2cc(C)c3[nH]ncc3c2)n2nc(C3CC3)nc12` [Example 94, 2-Cyclopropyl-6-(difluoromethyl)-8-ethyl-5-(7-methyl-1H-indazol-5-yl)-[1,2,4]triazolo[1,5-a]pyridine], the half-maximal inhibitory concentration (IC50) was 0.398 nM.

For `CCCc1nc2c(C)cc(C(F)F)c(-c3cc(C)c4[nH]ncc4c3)n2n1` [Example 95, 6-(Difluoromethyl)-8-methyl-5-(7-methyl-1H-indazol-5-yl)-2-propyl-[1,2,4]triazolo[1,5-a]pyridine], the IC50 was 3.16 nM.

As for `Cc1cc(-c2c(C(F)(F)F)cc(C)c3nc(C(F)(F)F)nn23)cc2cn[nH]c12` [Example 107, 8-Methyl-5-(7-methyl-1H-indazol-5-yl)-2,6-bis(trifluoromethyl)-[1,2,4]triazolo[1,5-a]pyridine], the IC50 was 0.501 nM.

In the case of `CCc1ccc2nc(C(F)(F)F)nn2c1-c1cc(C)c2[nH]ncc2c1` [Example 52, 6-Ethyl-5-(7-methyl-1H-indazol-5-yl)-2-(trifluoromethyl)-[1,2,4]triazolo[1,5-a]pyridine], the IC50 is 0.501 nM.

Take `Cc1cc(-c2c(C(F)(F)F)ccc3cc(C(C)C)nn23)cc2cn[nH]c12` [Example 74, 5-(2-Isopropyl-6-(trifluoromethyl)pyrazolo[1,5-a]pyridin-7-yl)-7-methyl-1H-indazole]: the IC50 was 0.0794 nM.

With `CCc1nc2ccc(C(F)F)c(-c3cc(Cl)c4c(c3)CC(=O)N4)n2n1` [Example 46, 7-Chloro-5-(6-(difluoromethyl)-2-ethyl-[1,2,4]triazolo[1,5-a]pyridin-5-yl)indolin-2-one], the IC50 is 3.98 nM.

With `FC(F)c1nc2ccc(C(F)(F)F)c(-c3cc(C(F)(F)F)c4[nH]ncc4c3)n2n1` [Example 11, 2-(Difluoromethyl)-6-(trifluoromethyl)-5-(7-(trifluoromethyl)-1H-indazol-5-yl)-[1,2,4]triazolo[1,5-a]pyridine], the IC50 is 0.158 nM.

In the case of `FC(F)c1ccc2nc(C3CC3)nn2c1-c1cc(Cl)c2[nH]ncc2c1` [Example 48, 5-(7-Chloro-1H-indazol-5-yl)-2-cyclopropyl-6-(difluoromethyl)-[1,2,4]triazolo[1,5-a]pyridine], the concentration for half-maximal inhibition (IC50) was 0.2 nM.

Regarding `O=C1Cc2cc(-c3c(C(F)(F)F)ccc4nc(C(F)F)nn34)cc(Cl)c2N1` [Example 9, 7-Chloro-5-(2-(difluoromethyl)-6-(trifluoromethyl)-[1,2,4]triazolo[1,5-a]pyridin-5-yl)indolin-2-one], the IC50 was 0.398 nM.

Take `CCc1nc2ccc(C(F)F)c(-c3cc(C)c4[nH]ncc4c3)n2n1` [Example 45, 6-(Difluoromethyl)-2-ethyl-5-(7-methyl-1H-indazol-5-yl)-[1,2,4]triazolo[1,5-a]pyridine]: the IC50 was 1.26 nM.

Regarding `Cc1cc(-c2c(-c3ccc(F)cc3)ccc3nc(C(F)(F)F)nn23)cc2c1NC(=O)C2` [Example 57, 5-(6-(4-Fluorophenyl)-2-(trifluoromethyl)-[1,2,4]triazolo[1,5-a]pyridin-5-yl)-7-methylindolin-2-one], the IC50 is 0.0631 nM.

Turning to `Cc1cc(-c2c(C(F)(F)F)ccc3nc(C(F)F)nn23)cc2c1NC(=O)C2` [Example 10, 7-Methyl-5-(2-(difluoromethyl)-6-(trifluoromethyl)-[1,2,4]triazolo[1,5-a]pyridin-5-yl)indolin-2-one], the IC50 was 0.794 nM.

Turning to `Cc1cc(-c2c(C(F)F)ccc3nc(C(F)(F)F)nn23)cc2cn[nH]c12` [Example 17, 6-(Difluoromethyl)-5-(7-methyl-1H-indazol-5-yl)-2-(trifluoromethyl)-[1,2,4]triazolo[1,5-a]pyridine], the half-maximal inhibitory concentration (IC50) was 0.158 nM.

Regarding `Cc1cc(-c2c(C(F)F)cc(C)c3nc(C4CC4)nn23)cc2cn[nH]c12` [Example 114, 2-Cyclopropyl-6-(difluoromethyl)-8-methyl-5-(7-methyl-1H-indazol-5-yl)-[1,2,4]triazolo[1,5-a]pyridine], the IC50 was 0.398 nM.

For `CCc1nc2c(Cl)cc(C(F)(F)F)c(-c3cc(C)c4[nH]ncc4c3)n2n1` [Example 30, 8-Chloro-2-ethyl-5-(7-methyl-1H-indazol-5-yl)-6-(trifluoromethyl)-[1,2,4]triazolo[1,5-a]pyridine], the 50% inhibitory concentration (IC50) is 3.98 nM.

In the case of `CCc1nc2ccc(C(F)(F)F)c(-c3cc(C)c4[nH]ncc4c3)n2n1` [Example 26, 2-Ethyl-5-(7-methyl-1H-indazol-5-yl)-6-(trifluoromethyl)-[1,2,4]triazolo[1,5-a]pyridine], the IC50 was 1 nM.

As to `Cc1cc(-c2c(C(F)F)ccc3cc(C(F)(F)F)nn23)cc2c1NC(=O)C2` [Example 119, 5-[6-(Difluoromethyl)-2-(trifluoromethyl)pyrazolo[1,5-a]pyridin-7-yl]-7-methyl-indolin-2-one], the IC50 was 0.0501 nM.

In the case of `FC(F)(F)c1nc2c(Cl)cc(C(F)(F)F)c(-c3cc(Cl)c4[nH]ncc4c3)n2n1` [Example 5, 8-Chloro-5-(7-chloro-1H-indazol-5-yl)-2,6-bis(trifluoromethyl)-[1,2,4]triazolo[1,5-a]pyridine], the concentration for half-maximal inhibition (IC50) is 0.316 nM.
